“And” between values parts separate entries of the source, which are not always exact repeats. Identical values can stand only once. Peptide text beside a SMILES is read from it.
Legend:
MCAO model rats [1] = assay: Therapeutic effect on MCAO model rats (cerebral infarction volume, TTC staining); details: rat, in vivo
Method: The focal cerebral ischemia-reperfusion model was prepared according to the reversible middle cerebral artery occlusion (MCAO) suture method proposed by Longa with modifications in view of the anatomical structure of the rat brain. The rats were anesthetized by intraperitoneal administration of 10% chloral hydrate at a dose of […]. After anesthetization, a cut was created at the cervical midline, and the common carotid artery (CCA), external carotid artery (ECA) and pterygopalatine artery were exposed. The head portion (0.5 cm) of a monofilament nylon fishing line (0.26 mm) was coated with paraffin and a mark was made at 20 mm. All rats were inserted through the right CCA incision, and the pterygopalatine artery was temporarily clamped to prevent mis-insertion. The length of the occlusion line was about 18-20 mm from the bifurcation of CCA depending on the animal's weight, thereby occluding middle cerebral artery on the right side. The skin was then sewed, and the tail end of the occlusion line was partially fixed to the skin. After a period of ischemia for 2 hours, the occlusion line was carefully pulled out to form a reperfusion. The procedure steps for the sham control were the same as the surgery group, except for insertion of a nylon fishing line. The body temperature was maintained at 37±0.5° C. during the ischemia period and 2 h after reperfusion.
The used animals were male adult SD rats (Vittalia) of SPF grade with body weight of 220-250 g.
No drug was administered to the normal group and the sham group.
The rats were sacrificed by decapitation after scoring. The brain tissues were quickly removed and placed in a refrigerator at −20° C. After 10 minutes, the tissues were placed in a room temperature environment. The brains were placed in a rat brain section mold. After the olfactory bulb, cerebellum and low brain stem were removed, the brains were coronally cut five times at 2 mm thickness as shown in the profile to obtain six continuous raw coronal slices. Then, the brain sections were quickly placed in a 5 ml solution containing 2% TTC, and incubated at 37° C. for 30 minutes in the dark, during which the brain sections were flipped once every 5 minutes. With the TTC staining, the normal tissue would be rose red, and the infarcted tissue would be unstained and retained white. Each group of brain sections was arranged neatly, and photographed. The photos were processed by an image analysis system software and statistically analyzed. The infarction area of each brain section was calculated, and multiplied by the thickness of each brain section (2 mm). The products of the infarction area of individual brain section multiplied by the thickness were summed to obtain the cerebral infarction volume for each animal. The volumes were expressed as percentages accounting for the cerebral hemisphere to eliminate the effects of cerebral edema.

MCAO model rats [2] = assay: HE staining for histological changes of rat brain after ischemia; type: in vivo; details: 10 mg/kg, 24 h after ischemia
Method: The rats in each group were decapitated at 24 h after ischemia, and the resultant brain was coronally sectioned near the optic chiasm with a thickness of about 4 mm. The sections were fixed with 10% formalin solution and dehydrated with alcohol with a concentration gradient from 70% to 100%. The sections were permeabilized twice in xylene, and embedded in paraffin. The paraffin block was carefully trimmed, and immobilized on a paraffin slicing machine, and sliced to sections with a thickness of 4 μm. The paraffin sections were completely unfolded, attached to a clean and dry glass slide, and stored in a refrigerator at 4° C. Conventional HE staining was performed, and the staining results were observed by light microscopy.

rats = assay: Acute toxicity test on rats; type: in vivo, rat; details: dose of 200 mg/kg body weight
Method: Acute toxicity tests were performed on rats.

Row | SMILES | Mean of infarction volume percentage (%) (MCAO model rats [1]) | Mean of infarction volume percentage (%) (MCAO model rats [1]; 1 mg/kg) | Reduction of infarction volume percentage vs model group (MCAO model rats [1]; 1 mg/kg) [%] | Mean of infarction volume percentage (%) (MCAO model rats [1]; 3 mg/kg) | Reduction of infarction volume percentage vs model group (MCAO model rats [1]; 3 mg/kg) [%] | Mean of infarction volume percentage (%) (MCAO model rats [1]; 10 mg/kg) | pathological changes of brain tissue (HE staining) (MCAO model rats [2]; prophylactic administration) | pathological changes of brain tissue (HE staining) (MCAO model rats [2]; therapeutic administration) | acute toxicity (rats)
1 | CC[C@H](C)[C@H](NC(=O)[C@H](CO)NC(=O)[C@H](CO)NC(=O)[C@H](CC(C)C)NC(=O)[C@H](CCCCN)NC(=O)[C@H](CCC(=O)O)NC(=O)[C@H](Cc1ccc(O)cc1)NC(=O)[C@H](CCCNC(=N)N)NC(=O)[C@H](CCCNC(=N)N)NC(=O)[C@H](CCCNC(=N)N)NC(=O)[C@H](CCC(N)=O)NC(=O)[C@H](CCCNC(=N)N)NC(=O)[C@H](CCCNC(=N)N)NC(=O)[C@H](CCCCN)NC(=O)[C@H](CCCCN)NC(=O)[C@H](CCCNC(=N)N)NC(=O)CNC(=O)[C@@H](N)Cc1ccc(O)cc1)C(=O)N[C@@H](CCC(=O)O)C(=O)N[C@@H](CO)C(=O)N[C@@H](CC(=O)O)C(=O)N[C@H](C(=O)O)C(C)C [YE-NA-1] (H-YGRKKRRQRRRYEKLSSIESDV-OH) | 33.96% |  |  |  |  |  |  |  | 
2 | CC[C@H](C)[C@H](NC(=O)[C@H](CCC(=O)O)NC(=O)[C@@H](NC(=O)[C@H](CC(=O)O)NC(=O)[C@H](CC(C)C)NC(=O)[C@H](CC(C)C)NC(=O)[C@H](CCCCN)NC(=O)[C@H](CCC(=O)O)NC(=O)[C@H](Cc1ccc(O)cc1)NC(=O)[C@H](CCCNC(=N)N)NC(=O)[C@H](CCCNC(=N)N)NC(=O)[C@H](CCCNC(=N)N)NC(=O)[C@H](CCC(N)=O)NC(=O)[C@H](CCCNC(=N)N)NC(=O)[C@H](CCCNC(=N)N)NC(=O)[C@H](CCCCN)NC(=O)[C@H](CCCCN)NC(=O)[C@H](CCCNC(=N)N)NC(=O)CNC(=O)[C@@H](N)Cc1ccc(O)cc1)[C@@H](C)O)C(=O)O [P5] | 24.84% and 36.54% and 43.22% | 44.23 | 3.76 | 35.66 | 22.41 | 19.54 | significantly improved | significantly improved | no lethal effect and other obvious toxic side effects
3 | CC[C@H](C)[C@H](NC(=O)[C@H](CO)NC(=O)[C@H](CO)NC(=O)[C@H](CC(C)C)NC(=O)[C@H](CCCCN)NC(=O)[C@H](CCCNC(=N)N)NC(=O)[C@H](CCCNC(=N)N)NC(=O)[C@H](CCCNC(=N)N)NC(=O)[C@H](CCC(N)=O)NC(=O)[C@H](CCCNC(=N)N)NC(=O)[C@H](CCCNC(=N)N)NC(=O)[C@H](CCCCN)NC(=O)[C@H](CCCCN)NC(=O)[C@H](CCCNC(=N)N)NC(=O)CNC(=O)[C@@H](N)Cc1ccc(O)cc1)C(=O)N[C@@H](CCC(=O)O)C(=O)N[C@@H](CO)C(=O)N[C@@H](CC(=O)O)C(=O)N[C@H](C(=O)O)C(C)C [NA-1, reference compound] (H-YGRKKRRQRRRKLSSIESDV-OH) | 38.56% |  |  |  |  |  |  |  | 

Reference: patent US11541098B2, “Peptide composition for treating excitatory neurotoxicity related injuries” (Biocells (Beijing) Biotech Co., Ltd., priority 2017, dated 2023)
